According to US20250127857A1, “A COMPOSITION COMPRISING IL-36 AND/OR IL-18 FOR USE IN TREATING OCULAR DISORDERS” (THE PROVOST, FELLOWS, FOUNDATION SCHOLARS, & THE OTHER …, priority 2021, published 2025):

Tests used:
HRMEC [1] = test: Wound healing (scratch) assay in HRMEC, IL-18; format: cell-based, human; conditions: IL-18, VEGF, bFGF each 50 ng/ml, closure expressed as % closure
Description: FIG. 16 illustrates HRMEC migration in response to IL-18 and IL-1α stimulation, wherein confluent HRMEC monolayers were scratched with a pipette tip and treated with IL-18 (50 ng/ml) or IL-1α (10 ng/ml) along with bFGF (50 ng/ml) or VEGF (50 ng/ml) as positive controls, wherein images were taken immediately following scratch (0 hrs) and at 4, 8 and 24 hours following scratch, wherein images were analysed using ImageJ imaging software, wherein data are presented as mean±SEM of 6 separate experiments in triplicate, wherein data were analysed using 2way ANOVA with Dunnett's multiple comparison test. (*p<0.05, *p<0.01, ****p<0.0001);
Cells were seeded on to a 12-well plate and grown until they reached confluency. 24 hours prior to the scratch, culture medium was replaced with 0.5% Serum media without supplements for 24 hours to induce cell quiescence. Cell monolayers were scratched once down the centre of the well using a p200 pipette tip and washed once with warmed DPBS to remove debris then replaced with 0.5% serum supplemented media with experimental treatments. Images were acquired using an Olympus IX51 inverted microscope with Cell^A imaging software (Olympus). Images were taken at baseline immediately following scratch and at suitable timepoints for up to 24 (HRMECs) or 48 hours (BMVECs). The area within the scratch was quantified using ImageJ software, and each timepoint was normalised to its baseline and expressed as % closure.

HRMEC [2] = test: MTS assay of HRMEC proliferation with VEGF and IL-18; format: cell-based, human; conditions: VEGF alone
Description: FIG. 17 illustrates HRMEC proliferation in response to VEGF is enhanced with IL-18 pre-treatment, wherein HRMECs were treated with increasing concentrations of VEGF alone or with a 24 hour pre-treatment of IL-18 at 10, 100 or 1000 ng/ml, wherein increasing VEGF induced an increase in cell proliferation which was enhanced following IL-18 treatment;
Cell viability was assessed using the CellTiter 96 AQueous One Solution cell proliferation MTS assay (Promega) as per the manufacturer's instructions. Cell monolayers were treated for times indicated where treatment supplemented media was then removed and incubated with 20 μl of CellTiter 96 AQueous One Solution in 100 μl of complete growth medium in a humidified incubator at 37° C. with 5% CO2for 1-4 hours. The absorbance of each well was measured at 490 nm using a SynergyMX plate reader (Biotek, Gen5™).

occludin = test: Occludin expression in HRMEC (qPCR and immunoblotting); format: cell-based, human; conditions: for expression of tight junction protein occludin: single cytokine
Description: FIG. 18 illustrates IL-18 drives expression of tight junction protein occludin and inhibits VEGF depletion of occluding, wherein HRMECS were treated with either VEGF, IL-18 or IL-1α for the timepoints indicated (top panel) and cells were prepared for RNA isolation and qPCR with expression of occluding measured, wherein HRMECs were treated with VEGF, IL-18 or IL-1 or combinations of these cytokines and cells were prepared for immunoblotting for expression of occludin and b-actin (lower panels);
Following transfer, membranes were blocked by incubating in 5% non-fat dried milk (Marvel) in TBS-T for 1 hour at room temperature whilst shaking. Membranes were incubated with primary antibody diluted in either 5% Marvel or BSA, depending on antibody specification, overnight at 4° C. with gentle agitation. Primary antibody was recovered and stored at −20. Membranes were washed three times in TBS-T for 5 minutes and membranes were incubated with secondary antibody, diluted in 5% Marvel, for 1 hour at room temperature. Secondary antibody was removed and discarded, and excess secondary was removed from the membranes by three 5-minute washes in TBS-T.
All RT-PCR assays were carried out using the SensiFAST SYBR Hi-ROX Kit (Bioline) with primers designed using Primer-BLAST (NCBI). For each target a master-mix comprising of 4 μl SYBR Green mix, 0.5 μl of Forward primer (4 μM) and 0.5 μl of Reverse primer (4 μM) along and 3 μl of RNAse free H2O was prepared and mixed thoroughly by vortexing. 8 μl of master-mix was added to each well of a 0.1 mL MicroAMP® Fast 96-well Reaction Plate (Applied Biosystems), along with 2 μl of cDNA and sealed using Optical adhesive film (Applied Biosystems) and spun down for 30 seconds in a centrifuge fitted with microplate rotor (Eppendorf) before running. Plate were run using a QuantStudio 3 real-time PCR System (Applied Biosystems) or the StepOnePlus Real-Time PCR System (Applied Biosystems), with run conditions set as: 50° C. for 2 mins, 95° C. for 10 minutes, 40 cycles of 95° C. for 15 seconds then 60° C. for 1 minute. To assess the quality of Primers a melt-curve stage was added: 95° C. for 1 second, 60° C. for 20 seconds, 95° C. for 1 second. Data were analysed using the QuantStudio™ Design & Analysis software (Applied Biosystems) and using the comparative Ct (ΔΔCt) method where test samples were normalised to endogenous control (β-Actin) followed by normalising the ΔCt of test samples to sample control (untreated sample), then calculating 2^−ΔΔCt to find the relative fold change of test samples over sample control.

IL-36R = conditions: HRMEC, VEGF treatment over timepoints
[3] = tested on: cldn5, tricellulin, ZO-1 and VE-cadherin mRNA in HRMEC; test: Real-time qPCR of junction components; format: cell-based, human; conditions: 100 ng/ml IL-36β or 10 μM RepSox, 24 hours
From the text: […]

Row | Molecule | mean difference in wound closure vs no treatment (xdiff) (HRMEC [1]; 8 hours post scratch) | mean difference in wound closure vs no treatment (xdiff) (HRMEC [1]; 24 hours post scratch) | HRMEC proliferation with increasing doses of VEGF (HRMEC [2]) | expression of tight junction protein occludin (occludin) | IL-36R expression (IL-36R) | ZO-1 transcript (qPCR) [3] | rescue of VEGF mediated occludin inhibition (occludin; combination with VEGF, immunoblotting)
1 | FGF: bFGF (50 ng/ml) used as positive control in scratch assay | −4.366 | −28.4 | – | – | – | – | –
2 | VEGF | −9.35 | −12.25 | increase in proliferation up to 5 ng/ml | reduced expression of occludin | reduces IL-36R expression | – | –
3 | Cc1cccc(-c2[nH]ncc2-c2ccc3ncccc3n2)n1 [RepSox] | – | – | – | – | – | appeared unaffected | –
4 | IL-1α: human IL-1α (R&D systems) (protein, UniProt P01583 113-271, looked up) Interleukin-1 alpha: SAPFSFLSNVKYNFMRIIKYEFILNDALNQSIIRANDQYLTAAALHNLDEAVKFDMGAYKSSKDDAKITVILRISKTQLYVTAQDEDQPVLLKEMPEIPKTITGSETNLLFFWETHGTKNYFTSVAHPNLFIATKQDYWVCLAGGPPSITDFQILENQA | – | – | – | reduced expression of occludin | – | – | does not rescue VEGF mediated occludin inhibition
